In US9101148B2, “Carbohydrate modifying agent and drinks containing the modifying agent” (SBS Food Group LLC, priority 2001, dated 2015):

System: mutans streptococci
Assay: Inhibition of growth and adherence of mutans streptococci in vitro by zinc salts
Type: cell-based
Settings: 0.5% zinc solution
Text: In another preferred embodiment of the invention, the formulation includes one or more zinc salt or other source of the zinc ion. Metabolically, zinc is a critical nutrient in the synthesis of insulin and the metabolism of carbohydrates. From a dental perspective, cariogenic bacteria enzymatically produce an insoluble glucan deposit from simple sugars present in the mouth that firmly adheres to the enamel tooth surface.

Molecule | adherence of mutans streptococci | growth of mutans streptococci
[Cl-].[Cl-].[Zn+2] [zinc chloride] | inhibited | inhibited
zinc ascorbate | inhibited | inhibited
